These results are taken from patent US20170362184A1, “PRO-SURVIVAL COMPOUNDS” (University Court of The University of Glasgow, priority 2014, published 2017).

One series relates to hESC line H1. The series is described as follows: cell survival 24 hrs post enzymatic passage. The settings on record: enzymatically passaged, 24 hrs post passage, mean ±SEM, n=3. The series is classed as cell-based, human. The method, then: (§1) Enzymatic passage of hPSC methodology 1. 24 hrs prior to passage (around 70-80% confluence), supply 1 well of near confluent hPSC with 2 ml StemPro supplemented with 30 μM SC332 (done during usual daily feed). 2. At point of passage, remove media and wash cells 1× in PBS (−/−). 3. Add 1.5 ml of TrypLE Select (1×) to well and return to incubator for 2-5 mins to dissociate to single cells. 4. Add 1.5 ml of StemPro to deactivate TrypLE Select and pipette gently using a 5 ml serological pipette (to dissociate any remaining clumps). 5. Transfer cells to 15 ml conical bottomed tube and centrifuge for 3 mins at 300 g. 6. Aspirate as much supernatant as possible and resuspend cell pellet by gently flicking. 7. Resuspend cells in PBS (−/−) and centrifuge again for 3 mins at 300 g. 8. Aspirate PBS (−/−) and resuspend cells in 1 ml of StemPro. Gently pipette using serological pipette. 9. Perform a cell count and replate hPSC at a density of 5×10^5 cells per well of a pre-coated 6 well plate. Top up to 2 mls total with StemPro supplemented with 30 μM SC332. Wells are pre-coated with 0.3 mg/ml fibronectin (recombinant vitronectin fragment can also be used). 10. Return cells to incubator and supply with fresh StemPro on a daily basis. 11. 24 hrs prior to subsequent passages (around 70-80% confluence), supply 1 well of PSC with 2 ml StemPro supplemented with 30 μM SC332 (done during usual daily feed). NB SC332 can be used transiently as described above or can be added to culture medium continuously (still at 30 μM).
(§2) Human pluripotent stem cells (hPSC) were either treated with SC332, Y27632, or left untreated, before being enzymatically passaged. […] In particular, the hESC lines H1, H9 and RC9 and the hiPSC NMF-iPSC6 had cell survival of 72% (±2.9), 73% (±2.8), 69% (±1.9) and 74% (±2.6) respectively when treated with SC332. […] Data shown is the mean survival ±SEM, n=3.

Another series deals with hESC line H9. Briefly: cell survival 24 hrs post enzymatic passage. The series is classed as cell-based, human. The settings on record: enzymatically passaged, 24 hrs post passage, mean ±SEM, n=3. As for the experimental part:
as §1, §2

Another series deals with hESC line RC9. Briefly: cell survival 24 hrs post enzymatic passage. The series is classed as cell-based, human. The settings on record: enzymatically passaged, 24 hrs post passage, mean ±SEM, n=3. The method, then: as §1, §2
A further series deals with hiPSC NMF-iPSC6. The series is described as follows: cell survival 24 hrs post enzymatic passage. The series is classed as cell-based, human. The settings on record: hiPSC NMF-iPSC6, enzymatically passaged, 24 hrs post passage, mean ±SEM, n=3. The method, then: as §1, §2
A further series has as its system hPSC (H1 hESC). Briefly: cytogenetic stability (karyotype) after 30 consecutive passages. It counts as cell-based, human. Particulars: H1 hESC treated for 30 consecutive passages. From the text:
In addition to this, long term exposure to compound SC332 had no detrimental effect on the karyotypic stability of hPSC (FIGS. 2 and 3).

Series [1] relates to hPSC (hESC cell line H1 and NMF-iPS6). The series is described as follows: passive differentiation into three germ layers after 30 passages. The series is classed as cell-based, human. Particulars: after 30 consecutive enzymatic passages. An excerpt:
HPSC treated for 30 passages with SC332 or Y27632 were passively differentiated for 2 weeks in suspension culture, followed by 2 weeks adherent culture, fixed and stained for markers of the three germ layers. Control cells that had been mechanically passaged and unexposed to any survival compound were also differentiated and stained in the same way. PAX6 is stained in the left hand column, AFP in the centre column and SMA in the right hand column. All cells were co-stained with DAPI. Scale bar represents 100 μm.
The differentiation capacity of hPSC after treatment with SC332 was also assessed. HPSC (hESC cell line H1 and NMF-iPS6) that had been enzymatically passaged with either SC332 or Y27632 for 30 consecutive passages were passively differentiated alongside mechanically maintained cells using a mixture of embryoid body based suspension culture and adherent culture. Differentiated cells were subsequently fixed and stained for markers from each of the three germ layers. […] As expected, untreated mechanically passaged control cells, included as a positive control, were also able to differentiate into each of the three germ layers (FIG. 5).

Series [2] concerns pMLC in iPSC (cell line NMF-iPS6). The series is described as follows: western blot of phosphorylated myosin light chain (pMLC) after dissociation. It counts as cell-based, human. Particulars: 15 mins post-dissociation, compared with untreated cells. As for the experimental part: Protein samples were taken from iPSC (cell line NMF-iPS6) that were treated with SC332, Y27632 or had no treatment (control) before being dissociated. Samples were harvested 15 mins, 30 mins, 45 mins, 1 hr, 2 hr and 4 hr post dissociation. Western blot analysis was performed. […] Data shown as mean±SEM, n=3.
On the technique in general: Immunoblotting shows a protein as a band on a membrane.

Another series deals with PRK2 (Homo sapiens, UniProt Q16513). Briefly: radioactive filter-binding kinase assay (33P-ATP). The series is classed as biochemical. The method, then: (§3) This screen utilises a radioactive filter-binding assay (33P-ATP) to assess the effect of compounds on kinase activity. Results confirmed that SC332 had no inhibitory effect on ROCK2 at a concentration of 10 μM (96% activity. SC332 also had very limited effect on the closely related PRK2, showing 76% and 98% activity when used at 10 μM and 30 μM respectively (FIG. 6).

The target of another series is ROCK2 (Rattus norvegicus, UniProt Q62868). The series is described as follows: radioactive filter-binding kinase assay (33P-ATP). The series is classed as biochemical. As for the experimental part: as §3
Chain of ROCK2 (Q62868 2-543 limits assumed): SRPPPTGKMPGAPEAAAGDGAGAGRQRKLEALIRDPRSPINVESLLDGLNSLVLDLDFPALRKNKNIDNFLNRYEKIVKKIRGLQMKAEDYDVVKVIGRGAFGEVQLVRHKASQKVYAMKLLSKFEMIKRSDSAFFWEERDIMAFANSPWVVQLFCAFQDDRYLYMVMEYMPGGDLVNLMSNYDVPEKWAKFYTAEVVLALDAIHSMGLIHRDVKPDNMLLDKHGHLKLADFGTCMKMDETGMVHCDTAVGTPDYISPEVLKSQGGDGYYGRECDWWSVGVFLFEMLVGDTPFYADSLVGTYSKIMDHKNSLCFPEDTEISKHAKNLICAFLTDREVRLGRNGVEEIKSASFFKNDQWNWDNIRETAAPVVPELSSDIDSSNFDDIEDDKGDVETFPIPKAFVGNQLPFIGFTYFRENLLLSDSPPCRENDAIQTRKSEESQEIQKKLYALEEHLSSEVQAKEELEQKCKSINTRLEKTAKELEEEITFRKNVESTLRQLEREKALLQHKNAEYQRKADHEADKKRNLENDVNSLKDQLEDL

Chain of PRK2 (Q16513 501-984 limits assumed, species assumed): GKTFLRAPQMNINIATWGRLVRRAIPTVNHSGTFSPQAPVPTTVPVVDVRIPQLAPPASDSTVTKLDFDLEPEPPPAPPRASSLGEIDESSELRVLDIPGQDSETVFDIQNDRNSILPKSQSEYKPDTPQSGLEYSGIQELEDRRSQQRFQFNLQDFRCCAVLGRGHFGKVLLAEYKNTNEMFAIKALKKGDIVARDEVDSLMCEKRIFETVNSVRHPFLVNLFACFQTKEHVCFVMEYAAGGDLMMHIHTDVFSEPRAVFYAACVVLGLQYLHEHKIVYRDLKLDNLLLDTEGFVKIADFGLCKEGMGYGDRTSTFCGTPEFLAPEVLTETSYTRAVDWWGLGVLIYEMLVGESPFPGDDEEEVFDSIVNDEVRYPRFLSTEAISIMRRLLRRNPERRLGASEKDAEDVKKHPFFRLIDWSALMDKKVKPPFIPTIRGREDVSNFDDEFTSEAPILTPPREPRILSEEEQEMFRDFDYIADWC

As to `C[C@@H](N)[C@H]1CC[C@H](C(=O)Nc2ccncc2)CC1` [Y27632, reference compound], the cell survival in the series on hESC line H1 worked out at 72%; in the series with hESC line H9, 73%; with hESC line RC9, 71%; in the series with hiPSC NMF-iPSC6, 74%. Moreover, in the series on hPSC (H1 hESC), the “cytogenetic stability (karyotype)” value is “karyotypically normal (46, XY)”. Also, the “differentiation towards mesoderm (SMA), endoderm (AFP) or ectoderm (PAX6)” value in series [1] is “did not block the differentiation”. The “levels of pMLC relative to α-tubulin” value in series [2] is “blocked the increase”.
`Cc1cc(NC(=O)Cn2c(NCc3ccccc3)nc3ccccc32)no1` [SC332, 2-(2-(benzylamino)-1H-benzo[d]imidazol-1-yl)-N-(5-methylisoxazol-3-yl)acetamide]: the cell survival with hESC line H1 amounted to 72%; in the series on hESC line H9, 73%; in the series with hESC line RC9, 69%; with hiPSC NMF-iPSC6, 74%. Besides, in the series on hPSC (H1 hESC), the “cytogenetic stability (karyotype)” value is listed as “karyotypically normal (46, XY)”. For the same molecule, the “differentiation towards mesoderm (SMA), endoderm (AFP) or ectoderm (PAX6)” value in [1] is listed as “did not block the differentiation”. The PRK2 activity at PRK2 (10 μM) turned out to be 76 % activity; at PRK2 (30 μM) it was 98 % activity. In addition, the “inhibition of PRK2 (in words)” value at PRK2 (30 μM) is recorded as “did not inhibit”. Also, the ROCK2 activity at ROCK2 (10 μM) worked out at 96 % activity. Besides, at ROCK2 (30 μM), the “inhibition of ROCK2 (in words)” value is given as “did not inhibit”. Besides, the “levels of pMLC relative to α-tubulin” value in series [2] is reported as “high levels of pMLC equivalent to those in untreated cells”.
